The text below walks through data of patent US12601016B2, “Genetically encoded fluorescent indicators under optogenetic control and uses thereof” (LUMISTAR BIOTECHNOLOGY, INC., priority 2018, dated 2026).

Experiment [1] concerns HL-1 cells. Briefly: Pharmacological stimulation by caffeine in HL-1 cells imaged using NIR-GECO1. In kind it is cell-based, mouse. Particulars: 10 mM caffeine. How it is done:
(§1) Representative time courses of Ca^2+ influx influenced by pharmacological stimulations of caffeine (10 mM). Spontaneous calcium oscillations were also able to be observed before applications of caffeine.
NIR-GECO1 and NIR-GECO2 were then tested for its performance in cardiovascular research. In one aspect of the present invention, a cell culture of stable immortalized cell lines, known as the HL-1 cell line, derived from mouse atrial cardiomyocytes is used as a model.
(§2) With reference to FIG. 8, NIR-GECO1 expressed in HL-1 (A) and iPSC-CMs (B), and NIR-GECO2 expressed in iPSC-CMs (C) were tested for pharmacological stimulation.
To culture the HL-1 cell line, flasks were pre-coated with gelatin/fibronectin at 37° C. overnight. […]
(§3) An inverted microscope (D1, Zeiss) equipped with a 63× objective lens (NA 1.4, Zeiss) and a multiwavelength LED light source (pE-4000, CoolLED) was used. […] The filter set (T685lpxr dichroic mirror, and ET720/60 emission filter) was used to stimulate ChR2 and to acquire fluorescence imaging of NIR-GECO1. […] Fluorescence signals were recorded by a CMOS camera (ORCA-Flash4.0LT, HAMAMATSU) and controlled by a HC Image software.

The test system of experiment [2] is iPSC-CMs. Briefly: Pharmacological stimulation by caffeine in iPSC-CMs imaged using NIR-GECO1 or NIR-GECO2. In kind it is cell-based, human. Particulars: 10 mM caffeine. How it is done: as §1, §2
Human iPSC-derived cardiomyocytes (Human iPSC Cardiomyocytes[…]|ax2505) were purchased from Axol Bioscience. The cells were plated in two wells of a 6-well plate and cultured for eight days in Axol's Cardiomyocyte Maintenance Medium to 80-90% confluency. Cells then were re-plated on Fibronectin/Gelatin (0.5%/0.1%) coated glass bottom dishes for final observation with Tyrode's buffer. […]
as §3

In experiment [3] the test system is voltage-gated L-type calcium channels. Put plainly: L-type calcium channel inhibitors applied to iPSC-CMs, optically paced Ca^2+ transients imaged using K-GECO1 with ChR2. In kind it is cell-based, human. Particulars: 1 μM; 470-nm pulses of 40 ms at 0.3 Hz. An excerpt:
(A) A representative time course of spontaneous Ca^2+ oscillations in iPSC-CMs as imaged using K-GECO1. (B) Photoactivation of R-GECO1 and (C) K-GECO1 in iPSC-CMs. Cells with and without spontaneous activities are shown in trace (i) and (ii), respectively. (D) Combined use of K-GECO1 and channelrhodopsin-2 (ChR2) in iPSC-CMs for all-optical control and observation of Ca^2+ transients. Illumination with 470-nm light at a pulse duration of 150 ms for optical control is indicated by arrowheads. (E) Small molecular inhibitors of the voltage-gated L-type calcium channels were applied to iPSC-CMs. iPSC-CMs were plated out at low density and exposed to clinically relevant doses of 100 nM and 1 μM for nifedipine and verapamil, respectively. Traces were obtained with optical stimulation by 470-nm light at a pulse duration of 40 ms at 0.3 Hz. […]
An inverted microscope (D1, Zeiss) equipped with a 63× objective lens (NA 1.4, Zeiss) and a multiwavelength LED light source (pE-4000, CoolLED) was used. […] The filter set (Q565lp dichroic mirror, and HQ620/60 emission filter) was used to stimulate ChR2 and to acquire fluorescence imaging of K-GECO1 or R-GECO1. […] Fluorescence signals were recorded using a CMOS camera (ORCA-Flash4.0LT, HAMAMATSU) controlled by a HC Image software.

Experiment [4] concerns iPSC-CMs. Put plainly: Blue-light photoactivation testing of GECIs expressed in iPSC-CMs. Particulars: 0.19 W/cm^2 of 470-nm LED light. In kind it is cell-based, human. The source says: (A) A representative time course of spontaneous Ca^2+ oscillations in iPSC-CMs as imaged using K-GECO1. (B) Photoactivation of R-GECO1 and (C) K-GECO1 in iPSC-CMs. Cells with and without spontaneous activities are shown in trace (i) and (ii), respectively. (D) Combined use of K-GECO1 and channelrhodopsin-2 (ChR2) in iPSC-CMs for all-optical control and observation of Ca^2+ transients. Illumination with 470-nm light at a pulse duration of 150 ms for optical control is indicated by arrowheads. (E) Small molecular inhibitors of the voltage-gated L-type calcium channels were applied to iPSC-CMs. iPSC-CMs were plated out at low density and exposed to clinically relevant doses of 100 nM and 1 μM for nifedipine and verapamil, respectively. Traces were obtained with optical stimulation by 470-nm light at a pulse duration of 40 ms at 0.3 Hz.
FIG. 7. Examination of photoactivation effects of NIR-GECO1 and NIR-GECO2 expressed in iPSC-CMs. […]
An inverted microscope (D1, Zeiss) equipped with a 63× objective lens (NA 1.4, Zeiss) and a multiwavelength LED light source (pE-4000, CoolLED) was used. […] The filter set (Q565lp dichroic mirror, and HQ620/60 emission filter) was used to stimulate ChR2 and to acquire fluorescence imaging of K-GECO1 or R-GECO1. […] Fluorescence signals were recorded using a CMOS camera (ORCA-Flash4.0LT, HAMAMATSU) controlled by a HC Image software. […]

Experiment [5] is described as follows: Ca^2+ titration of purified NIR-GECO variants (EGTA-buffered Ca^2+ solutions). In kind it is binding. Particulars: Ca^2+ titration of purified protein, 25° C.; read-out: apparent Kd. The source says: (§4) NIR-GECO1 is a near infrared indicator and is engineered from a naturally-monomeric infrared fluorescent proteins (mIFP). NIR-GECO1 has absorbance and emission peaks at 678 and 704 nm, respectively, and undergoes a 90% decrease in fluorescence intensity upon binding Ca^2+, serving as an inverse response indicator contrast to K-GECO1, as shown in FIG. 2B.
To purify NIR-GECO variants for in vitro characterization, the gene encoding variants of interest with a poly-histidine tag on the C terminus, was expressed from the pBAD vector. Bacteria were lysed with a cell disruptor (Constant Systems Ltd) and then centrifuged at 15,000 g for 30 min, and proteins were purified by Ni-NTA affinity chromatography (Agarose Bead Technologies). The buffer was typically exchanged to 10 mM MOPS, 100 mM KCl (pH 7.2) with centrifugal concentrators (GE Healthcare Life Sciences).
Ca^2+ titrations were carried out using EGTA-buffered Ca^2+ solutions (Calcium Calibration Buffer Kit no. 1, Life Technologies). We prepared buffers by mixing a CaEGTA buffer (30 mM MOPS, 100 mM KCl, 10 mM EGTA, 10 mM CaCl2) and an EGTA buffer (30 mM MOPS, 100 mM KCl, 10 mM EGTA) to give free Ca^2+ concentrations ranging from 0 to 39 μM at 25° C. Fluorescence intensities were plotted against Ca^2+ concentrations and fitted by a sigmoidal binding function to determine the Hill coefficient and Kd.

Experiment [6] in a line: In vitro fluorescence characterization of purified NIR-GECO1. In kind it is physicochemical. Particulars: inverse response indicator.
Text: as §4
To purify NIR-GECO variants for in vitro characterization, the gene encoding variants of interest with a poly-histidine tag on the C terminus, was expressed from the pBAD vector. Bacteria were lysed with a cell disruptor (Constant Systems Ltd) and then centrifuged at 15,000 g for 30 min, and proteins were purified by Ni-NTA affinity chromatography (Agarose Bead Technologies). […]
The extinction coefficients were determined by comparing the absorbance value at 678 nm to the absorbance value at the 391 nm and assuming an extinction coefficient of 39,900 M^− cm^− at 391 nm. […] The concentration of NIR-GECO variants (Ca^2+-free), NIR-GECO variants (Ca^2+-saturated) and mIFP was adjusted to have absorbance of 0.2-0.6 at 650 nm. A series of dilutions, with absorbance ranging from 0.01 to 0.05, were prepared, and integrated emission intensity versus absorbance was plotted. Quantum yields were determined from the slopes (S) of each line using the equation Φprotein=Φstandard*(Sprotein/Sstandard).

For `Cn1c(=O)c2c(ncn2C)n(C)c1=O` [caffeine], the “fluorescence intensity change (inverse indicator: increase in cytosolic Ca^2+ concentration)” value in experiment [1] and in experiment [2] was “significant decreases in fluorescence intensities” throughout.
In the case of `COc1ccc(CCN(C)CCCC(C#N)(c2ccc(OC)c(OC)c2)C(C)C)cc1OC` (centres unmarked) [verapamil], the “effect on triggered intensity change as imaged using K-GECO1” value in experiment [3] is given as “suppress the triggered intensity change”.
Turning to “NIR-GECO1: near infrared genetically encoded Ca^2+ indicator engineered from monomeric infrared fluorescent protein mIFP (SEQ ID NO. 6)”, in experiment [4] (pulse duration 40 ms), the “photoactivation: changes in fluorescence intensity under illumination” value is on record as “no significant changes in fluorescence intensity”. Also, the Kd in experiment [5] worked out at 0.215 µM. For the same molecule, the “decrease in fluorescence intensity upon binding Ca^2+” value in experiment [6] was found to be 90%.
As for “NIR-GECO2: near infrared Ca^2+ indicator sharing 99% sequence identity with NIR-GECO1 (SEQ ID NO. 7)”, in experiment [4] (pulse duration 100 ms), the “photoactivation: changes in fluorescence intensity under illumination” value is “no significant changes in fluorescence intensity”. Besides, the Kd in experiment [5] worked out at 0.48 µM.
